From patent US4927831A, “Spiro-isoquinoline-pyrrolidine tetrones and analogs thereof useful as aldose reductase inhibitors” (American Home Products, priority 1989, dated 1990)
Where two headings read alike, the source gives them in different places.

Legend:
[1] = biological target: T1, aldose reductase (Bos taurus, UniProt P16116); assay: in vitro aldose reductase inhibition (modified Hayman and Kinoshita; enzyme from bovine lens); type: biochemical; conditions: read-out: % Inhibition IN VITRO
T1 construct: preparation of the enzyme from bovine lens; from tissue; host or cells: bovine lens
Procedure: Only two minor reagent changes were made: (a) The rinsing mixture was an aqueous 5% (w/v) trichloroacetic acid solution and (b) the stock solution was prepared by dissolving 25 mg of dulcitol in 100 ml of an aqueous trichloroacetic acid solution. [N.B.: For each experiment the average value found in the tissue from rats fed the glucose diet was subtracted from the individual values found in the corresponding tissue in galactose-fed rats to obtain the amount of polyol accumulated.] […] In the present case the procedure of Hayman and Kinoshita was modified in that the final chromatography step was omitted in the preparation of the enzyme from bovine lens. […] The figures under L and N represent the percentage decrease of dulcitol accumulation in the tissues of the lens and sciatic nerve, respectively, for treated rats as compared to untreated rats.

[2] = system: dulcitol accumulation in the lens; assay: % lowering of dulcitol accumulation in lens (L) of galactosemic rats; type: in vivo, Sprague-Dawley; design: key: NS: statistically nonsignificant change; conditions: 4 days
Description: (§1) The aldose reductase inhibiting property of the compounds of this invention and the utilization of the compounds in preventing, diminishing and alleviating diabetic complications are demonstrable in experiments using galactosemic rats, see Dvornik et al., Science, 182, 1146 (1973). Such experiments are exemplified hereinbelow after the listing of the following general comments pertaining to these experiments:
(§2) (a) Four or more groups of six male rats, 50-70 g, Sprague-Dawley strain, were used. The first group, the control group, was fed a mixture of laboratory chow (rodent Laboratory Chow, Purina) and glucose at 20% (w/w %) concentration. An untreated galactosemic group was fed a similar diet in which galactose was substituted for glucose. The third group was fed a diet prepared by mixing a given amount of the test compound with the galactose containing diet. The concentration of galactose in the diet of the treated groups was the same as that for the untreated galactosemic group.
(§3) (b) After four days, the animals were killed by euthanization. Both the lens and sciatic nerve were removed, weighed and stored frozen for polyol determination.
(§4) (c) The polyol determination was performed by a modification of the procedure of M. Kraml and L. Cosyns, Clin. Biochem., 2,373 (1969). Only two minor reagent changes were made: (a) The rinsing mixture was an aqueous 5% (w/v) trichloroacetic acid solution and (b) the stock solution was prepared by dissolving 25 mg of dulcitol in 100 ml of an aqueous trichloroacetic acid solution. [N.B.: For each experiment the average value found in the tissue from rats fed the glucose diet was subtracted from the individual values found in the corresponding tissue in galactose-fed rats to obtain the amount of polyol accumulated.] The aldose reductase inhibiting effects of the compounds of formula (I) were also tested by employing an in vitro testing procedure similar to that described by S. Hayman and J.H. Kinoshita, J. Biol. Chem., 240,877 (1965). In the present case the procedure of Hayman and Kinoshita was modified in that the final chromatography step was omitted in the preparation of the enzyme from bovine lens.
(§5) The figures under L and N represent the percentage decrease of dulcitol accumulation in the tissues of the lens and sciatic nerve, respectively, for treated rats as compared to untreated rats.

[3] = system: dulcitol accumulation in the sciatic nerve; assay: % lowering of dulcitol accumulation in sciatic nerve (N) of galactosemic rats; type: in vivo, Sprague-Dawley; design: key: NS: statistically nonsignificant change; conditions: 4 days
Description: as §1, §2, §3, §4, §5

SMILES	inhibition at 0.04 µM ([1]; 4 × 10^-8 M) [%]	inhibition at 10 µM ([1]; 10^-5 M) [%]	inhibition at 1 µM ([1]; 10^-6 M) [%]	inhibition at 0.1 µM ([1]; 10^-7 M) [%]	% Lowering Dulcitol Accumulation IN VIVO, L (lens) ([2]; 1.0 mg/kg in diet)	% Lowering Dulcitol Accumulation IN VIVO, L (lens) ([2]; 3.0 mg/kg in diet) [%]	% Lowering Dulcitol Accumulation IN VIVO, N (sciatic nerve) ([3]; 1.0 mg/kg in diet) [%]	% Lowering Dulcitol Accumulation IN VIVO, N (sciatic nerve) ([3]; 3.0 mg/kg in diet) [%]	inhibition at 1 µM [1] [%]	inhibition at 10 µM [1] [%]	further results
O=C1CC2(C(=O)N1)C(=O)N(Cc1ccc(Cl)c(Cl)c1)C(=O)c1ccccc12 (centres unmarked) [2-[(3,4-Dichlorophenyl)methyl]spiro[isoquinoline-4(1H),3'-pyrrolidine]-1,2',3,5'(2H)-tetrone]	42	100	97	87	10.0%	18.0	64.0	76.0			% Lowering Dulcitol Accumulation IN VIVO, L (lens) ([2]; 10.0 mg/kg in diet): 35.0%; % Lowering Dulcitol Accumulation IN VIVO, L (lens) ([2]; 48.0 mg/kg in diet): 41.0%; % Lowering Dulcitol Accumulation IN VIVO, N (sciatic nerve) ([3]; 10.0 mg/kg in diet): 92.0%; % Lowering Dulcitol Accumulation IN VIVO, N (sciatic nerve) ([3]; 48.0 mg/kg in diet): 85.0%
O=C1CC2(C(=O)N1)C(=O)N(Cc1ccc(Br)cc1F)C(=O)c1ccccc12 (centres unmarked) [2-[(4-Bromo-2-fluorophenyl)methyl]spiro[isoquinoline-4(1H),3'-pyrrolidine]-1,2',3,5'(2H)-tetrone]	51				16.0%		95.0		94	96	inhibition at 0.1 µM [1]: 94%; % Lowering Dulcitol Accumulation IN VIVO, L (lens) ([2]; 0.1 mg/kg in diet): NS; % Lowering Dulcitol Accumulation IN VIVO, L (lens) ([2]; 0.3 mg/kg in diet): NS; % Lowering Dulcitol Accumulation IN VIVO, L (lens) ([2]; 0.5 mg/kg in diet): 12.0%; % Lowering Dulcitol Accumulation IN VIVO, N (sciatic nerve) ([3]; 0.1 mg/kg in diet): 26.0%; % Lowering Dulcitol Accumulation IN VIVO, N (sciatic nerve) ([3]; 0.3 mg/kg in diet): 60.0%; % Lowering Dulcitol Accumulation IN VIVO, N (sciatic nerve) ([3]; 0.5 mg/kg in diet): 82.0%
CN1C(=O)c2ccc(Br)cc2C2(CC(=O)NC2=O)C1=O (centres unmarked) [6-Br H CH3, 6-Bromo-2-methylspiro[isoquinoline-4(1H),3'-pyrrolidine]-1,2',3,5'(2H)-tetrone]	43	100	100	85	NS		54				
CN1C(=O)c2ccc(Cl)cc2C2(CC(=O)NC2=O)C1=O (centres unmarked) [6-Cl H CH3, 6-Chloro-2-methylspiro[isoquinoline-4(1H)3'-pyrrolidine]-1,2',3,5'(2H)-tetrone]	43			73	33%	59	75	75	94	93	
O=C1C[C@@]2(C(=O)N1)C(=O)N(Cc1ccc(Br)cc1F)C(=O)c1ccccc12 [(R)-(+)-2-[(4-Bromo-2-fluorophenyl)methyl]spiro[isoquinoline-4(1H),3'-pyrrolidine]-1,2',3,5'(2H)-tetrone]	87			91					93	96	% Lowering Dulcitol Accumulation IN VIVO, L (lens) ([2]; 0.5 mg/kg in diet): NS; % Lowering Dulcitol Accumulation IN VIVO, L (lens) ([2]; 5.1 mg/kg in diet): NS; % Lowering Dulcitol Accumulation IN VIVO, N (sciatic nerve) ([3]; 0.5 mg/kg in diet): 83%; % Lowering Dulcitol Accumulation IN VIVO, N (sciatic nerve) ([3]; 5.1 mg/kg in diet): 100%
O=C1C[C@@]2(C(=O)N1)C(=O)N(Cc1ccc(Br)cc1F)C(=O)c1ccc(F)cc12 [(R)-(+)-[2-[(4-Bromo-2-fluorophenyl)methyl]-6-fluoro]spiro[isoquinoline-4(1H),3'-pyrrolidine]-1,2',3,5'(2H)-tetrone]									95	99	inhibition at 0.04 µM [1]: 93%; inhibition at 0.1 µM [1]: 93%; % Lowering Dulcitol Accumulation IN VIVO, L (lens) ([2]; 0.4 mg/kg in diet): 31%; % Lowering Dulcitol Accumulation IN VIVO, L (lens) ([2]; 0.8 mg/kg in diet): 26%; % Lowering Dulcitol Accumulation IN VIVO, N (sciatic nerve) ([3]; 0.4 mg/kg in diet): 100%; % Lowering Dulcitol Accumulation IN VIVO, N (sciatic nerve) ([3]; 0.8 mg/kg in diet): 100%
O=C1C[C@]2(C(=O)N1)C(=O)N(Cc1ccc(Br)cc1F)C(=O)c1ccccc12 [(S)-(-)-2-[(4-Bromo-2-fluorophenyl)methyl]spiro[isoquinoline-4(1H),3'-pyrrolidine]-1,2',3,5'(2H)-tetrone]		87	51								% Lowering Dulcitol Accumulation IN VIVO, L (lens) ([2]; 0.5 mg/kg in diet): NS; % Lowering Dulcitol Accumulation IN VIVO, L (lens) ([2]; 4.8 mg/kg in diet): NS; % Lowering Dulcitol Accumulation IN VIVO, N (sciatic nerve) ([3]; 0.5 mg/kg in diet): NS; % Lowering Dulcitol Accumulation IN VIVO, N (sciatic nerve) ([3]; 4.8 mg/kg in diet): 83%
O=C1C[C@]2(C(=O)N1)C(=O)N(Cc1ccc(Br)cc1F)C(=O)c1ccc(F)cc12 [(S)-(-)-[2-[(4-Bromo-2-fluorophenyl)methyl]-6-fluoro]spiro[isoquinoline-4(1H),3'-pyrrolidine]-1,2',3,5'(2H)-tetrone]									97	98	inhibition at 0.04 µM [1]: 29%; inhibition at 0.1 µM [1]: 46%; % Lowering Dulcitol Accumulation IN VIVO, L (lens) ([2]; 0.4 mg/kg in diet): NS; % Lowering Dulcitol Accumulation IN VIVO, L (lens) ([2]; 0.8 mg/kg in diet): 21%; % Lowering Dulcitol Accumulation IN VIVO, N (sciatic nerve) ([3]; 0.4 mg/kg in diet): 40%; % Lowering Dulcitol Accumulation IN VIVO, N (sciatic nerve) ([3]; 0.8 mg/kg in diet): 70%
CN1C(=O)c2cc(Cl)ccc2C2(CC(=O)NC2=O)C1=O (centres unmarked) [H 7-Cl CH3, 7-Chloro-2-methylspiro[isoquinoline-4(1H)3'-pyrrolidine]-1,2',3,5'(2H)-tetrone]	34	95	92	61		14		21			
CCCN1C(=O)c2ccccc2C2(CC(=O)NC2=O)C1=O (centres unmarked) [H H (CH2)2 CH3, 2-Propylspiro[isoquinoline-4(1H),3'-pyrrolidine]-1,2',3,5'(2H)-tetrone]	8		62	19						94	% Lowering Dulcitol Accumulation IN VIVO, L (lens) ([2]; 11 mg/kg in diet): NS; % Lowering Dulcitol Accumulation IN VIVO, N (sciatic nerve) ([3]; 11 mg/kg in diet): NS
CCCCN1C(=O)c2ccccc2C2(CC(=O)NC2=O)C1=O (centres unmarked) [H H (CH2)3 CH3, 2-Butylspiro[isoquinoline-4(1H),3'-pyrrolidine]-1,2',3,5'(2H)-tetrone]	19	99		17					86		% Lowering Dulcitol Accumulation IN VIVO, L (lens) ([2]; 10.0 mg/kg in diet): NS; % Lowering Dulcitol Accumulation IN VIVO, N (sciatic nerve) ([3]; 10.0 mg/kg in diet): NS
CCN1C(=O)c2ccccc2C2(CC(=O)NC2=O)C1=O (centres unmarked) [H H CH2 CH3, 2-Ethylspiro[isoquinoline-4(1H),3'-pyrrolidine]-1,2',3,5'(2H)-tetrone]	17		76	27						96	% Lowering Dulcitol Accumulation IN VIVO, L (lens) ([2]; 11 mg/kg in diet): NS; % Lowering Dulcitol Accumulation IN VIVO, N (sciatic nerve) ([3]; 11 mg/kg in diet): NS
CN1C(=O)c2ccccc2C2(CC(=O)NC2=O)C1=O (centres unmarked) [H H CH3, 2-Methylspiro[isoquinoline-4(1H),3'-pyrrolidine]-1,2',3,5'(2H)-tetrone]		95	91	63	15.0%	43.0	37.0	66.0			inhibition at 0.04 µM [1]: 38%; % Lowering Dulcitol Accumulation IN VIVO, L (lens) ([2]; 10.0 mg/kg in diet): 62.0%; % Lowering Dulcitol Accumulation IN VIVO, L (lens) ([2]; 43.0 mg/kg in diet): 86.0%; % Lowering Dulcitol Accumulation IN VIVO, N (sciatic nerve) ([3]; 10.0 mg/kg in diet): 79.0%; % Lowering Dulcitol Accumulation IN VIVO, N (sciatic nerve) ([3]; 43.0 mg/kg in diet): 89.0%
